Test results from patent US20250288548A1, “INTRANASAL BACLOFEN” (THE REGENTS OF THE UNIVERSITY OF CALIFORNIA, priority 2022, published 2025).

How the values were obtained:
[1] = system: patients with new acquired brain injury; assay: Intranasal baclofen study in about 40 hospitalized patients (measured torque response, clinical response); assay type: in vivo, human
Text: FIG. 1 represents the summarized results of a study of about 40 patients. Grey bars represent patients treated with nasal baclofen, and white bars represent placebo. Bars to the left (negative) represent reduced tone, and right (positive) is worse tone. The middle line is no change. Statistically significant results are provided with error bars in this figure.
The first bar chart from left to right is baseline compared to visit 2 low dose (250 mcg). The second bar chart from left to right is baseline compared to visit 3 moderate dose (1000 mcg). The third bar chart from left to right is baseline compared to visit 4 high dose (2000 mcg). The fourth bar chart from left to right is baseline compared to visit 5 weaned off back to baseline (providing some residual effect). The p-values for the third panel, which represents the high dose are: Treatment p-value 0.004959, and Control p-value 0.232.
Forty (40) hospitalized patients with new acquired brain injury acutely treated in the PICU have been treated with intranasal baclofen. Aqueous intranasal solutions comprising 250 mcg, 1000 mcg, and/or 2000 mcg of baclofen and […] of sodium chloride per mL exploiting the nasal pathway have delivered baclofen to the CNS by circumventing the BBB. […]

[2] = system: patient with increased tone after explantation of intrathecal baclofen pump; assay: Individual intranasal baclofen test dose in PICU patient; assay type: in vivo, human; conditions: gablofen 2-50 mcg vials delivered intranasally as one administration; all enteral medications held
Text: A patient was admitted to a pediatric intensive care unit (PICU) due to increased tone after the patient had underwent surgical explantation of an intrathecal baclofen pump. The patient was on maximum doses of several enteral medications including enteral baclofen. They were given a test dose of intranasal baclofen administered in the PICU using commercially prepared intrathecal baclofen for test dose (gablofen 2-50 mcg vials delivered intranasally as one administration).

[3] = enteral doses ranging from 30 to 90 mg; cited from earlier work
[4] = at therapeutically effective intrathecal concentrations; cited from earlier work
[5] = solutions containing phosphate, sulfate, potassium, or magnesium; per U.S. Pat. No. 9,180,108 (also printed: greater than 4, 5, 6, 7 mg/mL); cited from earlier work
[6] = excised bovine nasal tissues; concentration independent transport, no polarized flux; cited from earlier work

## NCC(CC(=O)O)c1ccc(Cl)cc1 (centres unmarked) [baclofen, 4-amino-3-(p-chlorophenyl) butyric acid]
[1]; intranasal 250, 1000 and/or 2000 mcg solutions, versus maximized enteral baclofen dose (>90 mg/day)
  response compared with enteral baclofen: far greater than that observed with enteral baclofen
[1]; intranasal administration
  sedation compared with enteral baclofen: far less sedation
[2]
  change in tone after intranasal test dose: Significant improvement in tone
[3]
  CSF levels: 0.012 to 0.096 µg/mL
  plasma levels: 50 to 650 ng/mL
[4]
  plasma concentrations with intrathecal injection relative to oral/enteral administration: 100 times less
[5]
  concentration of baclofen that can be dissolved: greater than 2 mg/mL
[6]
  mechanism of absorption across nasal tissues: primarily absorbed via simple passive diffusion
